Assay results reported in patent US7868135B2, “Compositions of lipopeptide antibiotic derivatives and methods of use thereof” (priority 2003, dated 2011).
Starred links: 1 amine or outer side, 2 acyl side, 3 side chain; linkers in the order of their positions; H or OH if unused. Positions of bridges follow the written chain, without caps; N, C: chain ends. Non-standard residues stand in square brackets, D forms with d. Residues, ends and D or L forms follow the SMILES beside them. Groups on a side chain read outwards from the residue. ξ: configuration not given here. *: point of attachment. X30 = CC(NC(=O)Cc1ccc(N)cc1)C(N[*:1])C(=O)[*:2]; X17 = CSC[C@H](N)C(=O)NC(C)C(N[*:1])C(=O)[*:2]; ξAbu(βξ-NH2) = CC(N[*:3])C(N[*:1])C(=O)[*:2]; Lys(Me3) = C[N+](C)(C)CCCC[C@H](N)C(=O)O; Arg(Me2s) = CN=C(NC)NCCC[C@H](N)C(=O)O; Pentadecanoyl = CCCCCCCCCCCCCCC(=O)*; ξAsp(βξ-Me) = CC(C(=O)O)C(N)C(=O)O; Dab = NCC[C@H](N)C(=O)O; Pip = O=C(O)[CH]1CCCCN1; ξD = NC(CC(=O)O)C(=O)O; ξPip = O=C(O)C1CCCCN1; ξV = CC(C)C(N)C(=O)O; ξP = O=C(O)C1CCCN1; GABA = NCCCC(=O)O

Test system: Staphylococcus aureus (MSSA)
Settings: 24 h
Method in brief: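 Broth microdilution MIC per NCCLS M7-A6 with doubling serial dilutions, in cation-adjusted Mueller-Hinton broth supplemented with 0.625 mM calcium.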

| MIC [µg/mL] | SMILES |
| --- | --- |
| 8 | CCCCCCCCCCCCCCC(=O)NC(CC(=O)O)C(=O)NC1C(=O)N2CCCCC2C(=O)NC(C(C)C(=O)O)C(=O)NC(CC(=O)O)C(=O)NCC(=O)NC(CC(=O)O)C(=O)NCC(=O)NC(C(C)NC(=O)C(C)(C)N)C(=O)NC(C(C)C)C(=O)N2CCCC2C(=O)NC1C (stereo not drawn) [Compound 161, C15-Amphomycin-9-Aib] |
| 8 | CCCCCCCCCCCCCCC(=O)NC(CC(=O)O)C(=O)NC1C(=O)N2CCCCC2C(=O)NC(C(C)C(=O)O)C(=O)NC(CC(=O)O)C(=O)NCC(=O)NC(CC(=O)O)C(=O)NCC(=O)NC(C(C)NC(=O)[C@@H](N)CSC)C(=O)NC(C(C)C)C(=O)N2CCCC2C(=O)NC1C (stereo partly drawn) [Compound 162, C15-Amphomycin-9-MeCys] (Pentadecanoyl-[ξD][ξAbu(βξ-NH2)][ξPip][ξAsp(βξ-Me)][ξD]G[ξD]G[X17][ξV][ξP]; lactam 2-C) |
| 8 | CCCCCCCCCCCCCCC(=O)NC(CC(=O)O)C(=O)NC1C(=O)N2CCCCC2C(=O)NC(C(C)C(=O)O)C(=O)NC(CC(=O)O)C(=O)NCC(=O)NC(CC(=O)O)C(=O)NCC(=O)NC(C(C)NC(=O)[C@@H](N)CCC)C(=O)NC(C(C)C)C(=O)N2CCCC2C(=O)NC1C (stereo partly drawn) [Compound 163, C15-Amphomycin-9-Nvl] |
| 4 | CCCCCCCCCCCCCCC(=O)NC(CC(=O)O)C(=O)NC1C(=O)N2CCCCC2C(=O)NC(C(C)C(=O)O)C(=O)NC(CC(=O)O)C(=O)NCC(=O)NC(CC(=O)O)C(=O)NCC(=O)NC(C(C)NC(=O)[C@@H](N)CC)C(=O)NC(C(C)C)C(=O)N2CCCC2C(=O)NC1C (stereo partly drawn) [Compound 164, C15-Amphomycin-9-Abu] |
| 4 to 8 | CCCCCCCCCCCCCCC(=O)NC(CC(=O)O)C(=O)NC1C(=O)N2CCCCC2C(=O)NC(C(C)C(=O)O)C(=O)NC(CC(=O)O)C(=O)NCC(=O)NC(CC(=O)O)C(=O)NCC(=O)NC(C(C)NC(=O)[C@@H]2C[C@@H](O)CN2)C(=O)NC(C(C)C)C(=O)N2CCCC2C(=O)NC1C (stereo partly drawn) [Compound 167, C15-Amphomycin-9-Hyp] |
| 4 | CCCCCCCCCCCCCCC(=O)NC(CC(=O)O)C(=O)NC1C(=O)N2CCCCC2C(=O)NC(C(C)C(=O)O)C(=O)NC(CC(=O)O)C(=O)NCC(=O)NC(CC(=O)O)C(=O)NCC(=O)NC(C(C)NC(=O)[C@@H](N)C(C)C)C(=O)NC(C(C)C)C(=O)N2CCCC2C(=O)NC1C (stereo partly drawn) [Compound 169, C15-Amphomycin-9-Val] |
| 8 | CCCCCCCCCCCCCCC(=O)NC(CC(=O)O)C(=O)NC1C(=O)N2CCCCC2C(=O)NC(C(C)C(=O)O)C(=O)NC(CC(=O)O)C(=O)NCC(=O)NC(CC(=O)O)C(=O)NCC(=O)NC(C(C)NC(=O)[C@@H](N)CCCC)C(=O)NC(C(C)C)C(=O)N2CCCC2C(=O)NC1C (stereo partly drawn) [Compound 171, C15-Amphomycin-9-Nle] |

The next lines start with the molecule.

| SMILES | MIC [µg/mL] |
| --- | --- |
| CCCCCCCCCCCCCCC(=O)NC(CC(=O)O)C(=O)NC1C(=O)N2CCCCC2C(=O)NC(C(C)C(=O)O)C(=O)NC(CC(=O)O)C(=O)NCC(=O)NC(CC(=O)O)C(=O)NCC(=O)NC(C(C)NC(=O)CNC(=O)[C@@H](N)CN)C(=O)NC(C(C)C)C(=O)N2CCCC2C(=O)NC1C (stereo partly drawn) [Compound 157, C15-Amphomycin-9-Gly-Dap] | 4 to 8 |
| CCCCCCCCCCCCCCC(=O)NC(CC(=O)O)C(=O)NC1C(=O)N2CCCCC2C(=O)NC(C(C)C(=O)O)C(=O)NC(CC(=O)O)C(=O)NCC(=O)NC(CC(=O)O)C(=O)NCC(=O)NC(C(C)NC(=O)CNC(=O)[C@@H](N)CCCCCN)C(=O)NC(C(C)C)C(=O)N2CCCC2C(=O)NC1C (stereo partly drawn) [Compound 158, C15-Amphomycin-9-Gly-hLys] | 1 to 2 |
| CCCCCCCCCCCCCCC(=O)NC(CC(=O)O)C(=O)NC1C(=O)N2CCCCC2C(=O)NC(C(C)C(=O)O)C(=O)NC(CC(=O)O)C(=O)NCC(=O)NC(CC(=O)O)C(=O)NCC(=O)NC(C(C)NC(=O)CCCNC(=O)[C@@H](N)CCN)C(=O)NC(C(C)C)C(=O)N2CCCC2C(=O)NC1C (stereo partly drawn) [Compound 159, C15-Amphomycin-9-GABA-gDab] (Pentadecanoyl-[ξD][ξAbu(βξ-NH2)][ξPip][ξAsp(βξ-Me)][ξD]G[ξD]G[ξAbu(βξ-NH2)]([GABA-Dab])[ξV][ξP]; lactam 2-C) | 0.5 to 1 |
| CCCCCCCCCCCCCCC(=O)NC(CC(=O)O)C(=O)NC1C(=O)N2CCCCC2C(=O)NC(C(C)C(=O)O)C(=O)NC(CC(=O)O)C(=O)NCC(=O)NC(CC(=O)O)C(=O)NCC(=O)NC(C(C)NC(=O)[C@@H](N)CCCNC(N)=O)C(=O)NC(C(C)C)C(=O)N2CCCC2C(=O)NC1C (stereo partly drawn) [Compound 165, C15-Amphomycin-9-Cit] | 4 |
| CCCCCCCCCCCCCCC(=O)NC(CC(=O)O)C(=O)NC1C(=O)N2CCCCC2C(=O)NC(C(C)C(=O)O)C(=O)NC(CC(=O)O)C(=O)NCC(=O)NC(CC(=O)O)C(=O)NCC(=O)NC(C(C)NC(=O)[C@@H](N)CCCNC(=NC)NC)C(=O)NC(C(C)C)C(=O)N2CCCC2C(=O)NC1C (stereo partly drawn) [Compound 166, C15-Amphomycin-9-(ME)2Arg] (Pentadecanoyl-[ξD][ξAbu(βξ-NH2)][ξPip][ξAsp(βξ-Me)][ξD]G[ξD]G[ξAbu(βξ-NH2)](Arg(Me2s))[ξV][ξP]; lactam 2-C) | 32 |
| CCCCCCCCCCCCCCC(=O)NC(CC(=O)O)C(=O)NC1C(=O)N2CCCCC2C(=O)NC(C(C)C(=O)O)C(=O)NC(CC(=O)O)C(=O)NCC(=O)NC(CC(=O)O)C(=O)NCC(=O)NC(C(C)NC(=O)Cc2ccc(N)cc2)C(=O)NC(C(C)C)C(=O)N2CCCC2C(=O)NC1C (stereo not drawn) [Compound 168, C15-Amphomycin-9-(p-Apa)] (Pentadecanoyl-D[ξAbu(βξ-NH2)][Pip][ξAsp(βξ-Me)]DGDG[X30]VP; lactam 2-C; configuration not given here) | 32 to 64 |
| CCCCCCCCCCCCCCC(=O)NC(CC(=O)O)C(=O)NC1C(=O)N2CCCCC2C(=O)NC(C(C)C(=O)O)C(=O)NC(CC(=O)O)C(=O)NCC(=O)NC(CC(=O)O)C(=O)NCC(=O)NC(C(C)NC(=O)[C@@H](N)CCCC[N+](C)(C)C)C(=O)NC(C(C)C)C(=O)N2CCCC2C(=O)NC1C (stereo partly drawn) [Compound 170, C15-Amphomycin-9-(ME)3Lys] (Pentadecanoyl-[ξD][ξAbu(βξ-NH2)][ξPip][ξAsp(βξ-Me)][ξD]G[ξD]G[ξAbu(βξ-NH2)](Lys(Me3))[ξV][ξP]; lactam 2-C) | 2 |
| CCCCCCCCCCCCCCC(=O)NC(CC(=O)O)C(=O)NC1C(=O)N2CCCCC2C(=O)NC(C(C)C(=O)O)C(=O)NC(CC(=O)O)C(=O)NCC(=O)NC(CC(=O)O)C(=O)NCC(=O)NC(C(C)NC(=O)CCNC(=O)CCCCN)C(=O)NC(C(C)C)C(=O)N2CCCC2C(=O)NC1C (stereo not drawn) [Compound 173, C15-Amphomycin-9-(β-Ala)-(5-Ava)] | 1 |
| CCCCCCCCCCCCCCC(=O)NC(CC(=O)O)C(=O)NC1C(=O)N2CCCCC2C(=O)NC(C(C)C(=O)O)C(=O)NC(CC(=O)O)C(=O)NCC(=O)NC(CC(=O)O)C(=O)NCC(=O)NC(C(C)NC(=O)CCNC(=O)[C@@H](N)C(C)C)C(=O)NC(C(C)C)C(=O)N2CCCC2C(=O)NC1C (stereo partly drawn) [Compound 174, C15-Amphomycin-9-(β-Ala)-Val] | 2 |
| CCCCCCCCCCCCCCC(=O)NC(CC(=O)O)C(=O)NC1C(=O)N2CCCCC2C(=O)NC(C(C)C(=O)O)C(=O)NC(CC(=O)O)C(=O)NCC(=O)NC(CC(=O)O)C(=O)NCC(=O)NC(C(C)NC(=O)CCCCNC(=O)CCN)C(=O)NC(C(C)C)C(=O)N2CCCC2C(=O)NC1C (stereo not drawn) [Compound 176, C15-Amphomycin-9-(5-Ava)-(β-Ala)] | 4 |
| CCCCCCCCCCCCCCC(=O)NC(CC(=O)O)C(=O)NC1C(=O)N2CCCCC2C(=O)NC(C(C)C(=O)O)C(=O)NC(CC(=O)O)C(=O)NCC(=O)NC(CC(=O)O)C(=O)NCC(=O)NC(C(C)NC(=O)CNC(=O)[C@H](CCCCN)NC(=O)CN)C(=O)NC(C(C)C)C(=O)N2CCCC2C(=O)NC1C (stereo partly drawn) [Compound 190, C15-Amphomycin-9-Gly-Lys-Gly] | 1 |
| CCCCCCCCCCCCCCC(=O)NC(CC(=O)O)C(=O)NC1C(=O)N2CCCCC2C(=O)NC(C(C)C(=O)O)C(=O)NC(CC(=O)O)C(=O)NCC(=O)NC(CC(=O)O)C(=O)NCC(=O)NC(C(C)NC(=O)CNC(=O)[C@H](CCCCN)NC(=O)[C@@H](N)CCCCN)C(=O)NC(C(C)C)C(=O)N2CCCC2C(=O)NC1C (stereo partly drawn) [Compound 191, C15-Amphomycin-9-Gly-Lys-Lys] | 8 |
| CCCCCCCCCCCCCCC(=O)NC(CC(=O)O)C(=O)NC1C(=O)N2CCCCC2C(=O)NC(C(C)C(=O)O)C(=O)NC(CC(=O)O)C(=O)NCC(=O)NC(CC(=O)O)C(=O)NCC(=O)NC(C(C)NC(=O)CNC(=O)CNC(=O)[C@@H](N)CCCCN)C(=O)NC(C(C)C)C(=O)N2CCCC2C(=O)NC1C (stereo partly drawn) [Compound 192, C15-Amphomycin-9-Gly-Gly-Lys] | 0.5 to 1 |
| CCCCCCCCCCCCCCC(=O)NC(CC(=O)O)C(=O)NC1C(=O)N2CCCCC2C(=O)NC(C(C)C(=O)O)C(=O)NC(CC(=O)O)C(=O)NCC(=O)NC(CC(=O)O)C(=O)NCC(=O)NC(C(C)NC(=O)[C@H](CCCCN)NC(=O)CN)C(=O)NC(C(C)C)C(=O)N2CCCC2C(=O)NC1C (stereo partly drawn) [Compound 193, C15-Amphomycin-9-Lys-Gly] | 4 to 8 |
| CCCCCCCCCCCCCCC(=O)NC(CC(=O)O)C(=O)NC1C(=O)N2CCCCC2C(=O)NC(C(C)C(=O)O)C(=O)NC(CC(=O)O)C(=O)NCC(=O)NC(CC(=O)O)C(=O)NCC(=O)NC(C(C)NC(=O)[C@H](CCCCN)NC(=O)[C@@H](N)CCCCN)C(=O)NC(C(C)C)C(=O)N2CCCC2C(=O)NC1C (stereo partly drawn) [Compound 194, C15-Amphomycin-9-Lys-Lys] | 2 |
| CCCCCCCCCCCCCCC(=O)NC(CC(=O)O)C(=O)NC1C(=O)N2CCCCC2C(=O)NC(C(C)C(=O)O)C(=O)NC(CC(=O)O)C(=O)NCC(=O)NC(CC(=O)O)C(=O)NCC(=O)NC(C(C)NC(=O)[C@H](CCCCN)NC(=O)[C@H](CCCCN)NC(=O)[C@@H](N)CCCCN)C(=O)NC(C(C)C)C(=O)N2CCCC2C(=O)NC1C (stereo partly drawn) [Compound 195, C15-Amphomycin-9-Lys-Lys-Lys] | 4 |
| CCCCCCCCCCCCCCC(=O)NC(CC(=O)O)C(=O)NC1C(=O)N2CCCCC2C(=O)NC(C(C)C(=O)O)C(=O)NC(CC(=O)O)C(=O)NCC(=O)NC(CC(=O)O)C(=O)NCC(=O)NC(C(C)NC(=O)CNC(=O)CCCCCN)C(=O)NC(C(C)C)C(=O)N2CCCC2C(=O)NC1C (stereo not drawn) [Compound 197, C15-Amphomycin-9-Gly-Ahx] | 0.25 to 0.5 |
